Experimental data as given in article PMC8344021, “Discovery of Small Molecule Bak Activator for Lung Cancer Therapy” (Theranostics, 2021).

What was measured:
[1] = system: A549 cells; experiment: Dynamic BH3 profiling (DBP), mitochondrial priming; assay type: cell-based, human; settings: 0, 0.25, 0.5, 0.75, 1.0 µM, 16h
Protocol: (§1) DBP using Bim peptide was carried out as described previously [24]-[26]. After treatment with BKA-073, venetoclax (ABT-199) or DMSO control for 16h, cells were collected, washed and resuspended at 2 x 10^6 cells/ mL in mannitol experimental buffer (MEB) [150 mM D-mannitol, 10 mM HEPES-KOH (pH 7.5), 50 mM KCl, 20 μM EGTA, 20 μM EDTA, 0.1% BSA, and 5 mM succinate] as described. One volume of the 4x cell suspension was added to one volume of a 4x dye solution containing 4 μM JC-1, […] oligomycin, 0.02% digitonin, 20mM β-mercaptoethanol in MEB. The 2x cell/dye mixture was allowed to rest for 5-10 min at room temperature to allow for permeabilization and JC-1 staining. A total of 15μl of the 2x cell/dye mixture was loaded into a 384-well plate that contained 15µL of Bim BH3 peptide (0.03, 0.1, 0.3, 1, and 3 μM) in MEB, shaken for 15 s inside the reader, and the fluorescence at 590 nm monitored every 5 min for 180 min at 32 °C. The dynamic BH3 profile (∆ % Priming) was calculated as described [24]-[26].
The BH3 death domain is known to be required for the proapoptotic function of Bak. […] The top 500 compounds determined to have the highest affinity for the BH3 domain were obtained from the NCI and tested for cytotoxicity in human lung cancer cells (i.e. H1299, H460 and A549 cells) by sulforhodamine B (SRB) assay for further screening as described, [36]. […]

[2] = system: NSCLC and SCLC cell lines; experiment: Dynamic BH3 profiling in panel of NSCLC and SCLC cell lines; assay type: cell-based, human; settings: 1μM, 16h
Protocol: as §1
Figure 1 Discovery of small molecule BKA-073 as a lead compound that targets BH3 domain of Bak and induces mitochondrial priming and apoptosis in lung cancer cells. (A) Schematic illustration of screening strategies used to identify the lead Bak agonist BKA-073 and its chemical structure. […] (C) Expression levels of Bak were analyzed by Western blot in NSCLC and SCLC cell lines. […]

SMILES: COc1ccc2nc3ccccc3c(NCCNCC(C)O)c2c1 (centres unmarked) [BKA-073]
- induction of mitochondrial priming (∆% priming) [1]: in a dose-dependent manner
- induction of mitochondrial priming [2]: potently induced
